Common to all, as to assay type: functional
Test [1] relates to MDA-MB-468. In words: Growth inhibition of human MDA-MB-468 cells assessed as cell growth at 0.03 uM incubated for 48 hrs by sulforhodamine B assay relative to control. The conditions noted are these: MDA-MB-468, 48 h, read-out: Activity. For orientation: Sulforhodamine B stains cellular protein and so reports cell mass.
Test [2] has as its system Malme-3M. Description: Growth inhibition of human MALME-3M cells assessed as cell growth at 5 uM incubated for 48 hrs by sulforhodamine B assay relative to control. To be noted: read-out: Activity.
For test [3], the system named is LOX IMVI. Description: Growth inhibition of human LOXIMVI cells assessed as cell growth at 0.005 uM incubated for 48 hrs by sulforhodamine B assay relative to control. The conditions noted are these: read-out: Activity.
The subject of test [4] is RXF 393. In words: Growth inhibition of human RXF393 cells assessed as cell growth at 50 uM incubated for 48 hrs by sulforhodamine B assay relative to control. To be noted: RXF 393, 48 h, read-out: Activity.
In test [5] the test system is UACC-257. In words: Growth inhibition of human UACC257 cells assessed as cell growth at 5 uM incubated for 48 hrs by sulforhodamine B assay relative to control. To be noted: UACC-257, 48 h, read-out: Activity.
Test [6] concerns Hs-578T. Description: Growth inhibition of human Hs 578T cells assessed as cell growth at 0.005 uM incubated for 48 hrs by sulforhodamine B assay relative to control. The conditions noted are these: read-out: Activity.
Test [7] has as its system NCI-H226. Description: Growth inhibition of human NCI-H226 cells assessed as cell growth at 5 uM incubated for 48 hrs by sulforhodamine B assay relative to control. To be noted: NCI-H226, 48 h, read-out: Activity.
Test [8] concerns U-251. In words: Growth inhibition of human U251 cells assessed as cell growth at 50 uM incubated for 48 hrs by sulforhodamine B assay relative to control. To be noted: U-251, 48 h, read-out: Activity.
Test [9] concerns SK-MEL-5. Description: Growth inhibition of human SK-MEL-5 cells assessed as cell growth at 5 uM incubated for 48 hrs by sulforhodamine B assay relative to control. The conditions noted are these: SK-MEL-5, 48 h, read-out: Activity.
Test [10] deals with MOLT-4. Description: Growth inhibition of human MOLT4 cells assessed as cell growth at 0.5 uM incubated for 48 hrs by sulforhodamine B assay relative to control. The conditions noted are these: MOLT-4, 48 h, read-out: Activity.
For test [11], the system named is SF-539. Description: Growth inhibition of human SF539 cells assessed as cell growth at 0.5 uM incubated for 48 hrs by sulforhodamine B assay relative to control. To be noted: SF-539, 48 h, read-out: Activity.
The test system of test [12] is OVCAR-4. Description: Growth inhibition of human OVCAR4 cells assessed as cell growth at 50 uM incubated for 48 hrs by sulforhodamine B assay relative to control. To be noted: OVCAR-4, 48 h, read-out: Activity.
Test [13] relates to OVCAR-8. In words: Growth inhibition of human OVCAR8 cells assessed as cell growth at 5 uM incubated for 48 hrs by sulforhodamine B assay relative to control. The conditions noted are these: OVCAR-8, 48 h, read-out: Activity.
Test [14] has as its system NCI-H226. In words: Growth inhibition of human NCI-H226 cells assessed as cell growth at 50 uM incubated for 48 hrs by sulforhodamine B assay relative to control. To be noted: NCI-H226, 48 h, read-out: Activity.
For test [15], the system named is NCI-H460. Description: Growth inhibition of human NCI-H460 cells assessed as cell growth at 0.005 uM incubated for 48 hrs by sulforhodamine B assay relative to control. To be noted: NCI-H460, 48 h, read-out: Activity.
For test [16], the system named is NCI-H522. In words: Growth inhibition of human NCI-H522 cells assessed as cell growth at 0.5 uM incubated for 48 hrs by sulforhodamine B assay relative to control. To be noted: NCI-H522, 48 h, read-out: Activity.
Test [17] concerns HT-29. Description: Growth inhibition of human HT-29 cells assessed as cell growth at 50 uM incubated for 48 hrs by sulforhodamine B assay relative to control. The conditions noted are these: HT-29, 48 h, read-out: Activity.
For test [18], the system named is SK-MEL-2. In words: Growth inhibition of human SK-MEL-2 cells assessed as cell growth at 50 uM incubated for 48 hrs by sulforhodamine B assay relative to control. The conditions noted are these: SK-MEL-2, 48 h, read-out: Activity.
In test [19] the test system is Malme-3M. Description: Growth inhibition of human MALME-3M cells assessed as cell growth at 0.5 uM incubated for 48 hrs by sulforhodamine B assay relative to control. The conditions noted are these: read-out: Activity.
The test system of test [20] is SNB-75. Description: Growth inhibition of human SNB75 cells assessed as cell growth at 0.005 uM incubated for 48 hrs by sulforhodamine B assay relative to control. The conditions noted are these: SNB-75, 48 h, read-out: Activity.
Test [21] relates to HOP-92. Description: Growth inhibition of human HOP92 cells assessed as cell growth at 0.005 uM incubated for 48 hrs by sulforhodamine B assay relative to control. The conditions noted are these: HOP-92, 48 h, read-out: Activity.
In test [22] the test system is SN12C. In words: Growth inhibition of human SN12C cells assessed as cell growth at 0.5 uM incubated for 48 hrs by sulforhodamine B assay relative to control. To be noted: read-out: Activity.
Test [23] deals with K562. Description: Growth inhibition of human K562 cells assessed as cell growth at 5 uM incubated for 48 hrs by sulforhodamine B assay relative to control. The conditions noted are these: K562, 48 h, read-out: Activity.
The test system of test [24] is HL-60(TB). Description: Growth inhibition of human HL-60(TB) cells assessed as cell growth at 50 uM incubated for 48 hrs by sulforhodamine B assay relative to control. The conditions noted are these: HL-60, 48 h, read-out: Activity.
Test [25] deals with EKVX. In words: Growth inhibition of human EKVX cells assessed as cell growth at 5 uM incubated for 48 hrs by sulforhodamine B assay relative to control. The conditions noted are these: read-out: Activity.
In test [26] the test system is BT-549. In words: Growth inhibition of human BT549 cells assessed as cell growth at 5 uM incubated for 48 hrs by sulforhodamine B assay relative to control. To be noted: BT-549, 48 h, read-out: Activity.
Test [27] concerns UO-31. In words: Growth inhibition of human UO31 cells assessed as cell growth at 0.005 uM incubated for 48 hrs by sulforhodamine B assay relative to control. To be noted: UO-31, 48 h, read-out: Activity.
Test [28] has as its system IGROV-1. In words: Growth inhibition of human IGROV1 cells assessed as cell growth at 0.005 uM incubated for 48 hrs by sulforhodamine B assay relative to control. The conditions noted are these: IGROV-1, 48 h, read-out: Activity.
Test [29] concerns OVCAR-5. Description: Growth inhibition of human OVCAR5 cells assessed as cell growth at 0.5 uM incubated for 48 hrs by sulforhodamine B assay relative to control. To be noted: OVCAR-5, 48 h, read-out: Activity.
For test [30], the system named is EKVX. Description: Growth inhibition of human EKVX cells assessed as cell growth at 0.5 uM incubated for 48 hrs by sulforhodamine B assay relative to control. The conditions noted are these: read-out: Activity.
Test [31] relates to UACC-62. In words: Growth inhibition of human UACC62 cells assessed as cell growth at 0.5 uM incubated for 48 hrs by sulforhodamine B assay relative to control. The conditions noted are these: UACC-62, 48 h, read-out: Activity.
Test [32] relates to SNB-75. In words: Growth inhibition of human SNB75 cells assessed as cell growth at 5 uM incubated for 48 hrs by sulforhodamine B assay relative to control. The conditions noted are these: SNB-75, 48 h, read-out: Activity.
For test [33], the system named is UO-31. Description: Growth inhibition of human UO31 cells assessed as cell growth at 50 uM incubated for 48 hrs by sulforhodamine B assay relative to control. The conditions noted are these: UO-31, 48 h, read-out: Activity.
The subject of test [34] is EKVX. Description: Growth inhibition of human EKVX cells assessed as cell growth at 3 uM incubated for 48 hrs by sulforhodamine B assay relative to control. To be noted: read-out: Activity.

In the case of `Cc1nc2cc(O)c(O)cc2cc1Oc1ccc(NC(=O)Nc2ccc(Cl)c(Cl)c2)cc1`, in test [1], the growth at 0.03 µM came to 105%.

`COc1cc2cc(Oc3ccc(NC(=O)Nc4cccc(C(F)(F)F)c4)cc3)c(C)nc2cc1OC`: the growth at 5 µM in [2] is -1%; in [5], -13%; in test [7], 3%; in test [9], -35%; in test [13], 10%; in test [23], 13%. The growth at 5 µM in test [25] was determined as 6%; in test [26], 7%; in test [32] it was 5%. Besides, the growth at 0.005 µM in [3] came to 98%; in [6], 90%; in [15], 96%; in [20] it was 79%; in test [21] it was 96%; in test [27], 90%. Also, the growth at 0.005 µM in test [28] came out at 101%. For the same molecule, the growth at 50 µM was -69% in test [4]; -99% in test [8]; -63% in [12]; -67% in [14]; -99% in test [17]; -87% in test [18]. In addition, the growth at 50 µM in test [24] was -43%; in test [33], -24%. Also, the growth at 0.5 µM turned out to be 95% in [10]; 104% in test [11]; 90% in [16]; 108% in [19]; 95% in test [22]; 119% in [29]. The values for the growth at 0.5 µM in test [30] and in test [31] were 89% and 86%, respectively.

For the molecule `COc1cc2cc(Oc3ccc(NC(=O)Nc4ccc(Cl)c(C(F)(F)F)c4)cc3)c(C)nc2cc1OC`, the growth at 3 µM in test [34] was 5%.

(Values after ChEMBL document CHEMBL3994622, “Design and synthesis of new RAF kinase-inhibiting antiproliferative quinoline derivatives. Part 2: Diarylurea derivatives” (Eur J Med Chem, 2017).)
